Reference: publication PMC8448819, “The Arabidopsis MIK2 receptor elicits immunity by sensing a conserved signature from phytocytokines and microbes” (Nature Communications, 2021)
Where “and” joins values, the source holds several entries; their conditions need not be identical. Equal entries are not always repeated. Entries after “also recorded” stand apart in the source; their conditions may differ. Where two headings read alike, the source gives them in different places.

Legend:
[1] = system: mik2-1 and mik2-2 mutant seedlings; type: in vivo, Arabidopsis thaliana; conditions: for Root length (Fig. 3e): individual values, one per line
[2] = system: PEPR1^ECD-MIK2^TK/pepr1,2 transgenic seedlings; assay: Root growth assay, PEPR1^ECD-MIK2^TK/pepr1,2 seedlings; type: in vivo, Arabidopsis thaliana; conditions: PEPR1^ECD-MIK2^TK/pepr1,2 compared to WT
Excerpt: The BAK1 (AT4G33430), SERK4 (AT2G13790), BIK1 (AT2G39660), and MIK2 (AT4G08850) coding sequences (CDSs) were amplified by PCR from Col-0 cDNA using the primers containing BamHI at the 5′ end and StuI at the 3′ end. The PCR products were digested by BamHI and StuI, followed by ligation into the pHBT-FLAG or pHBT-HA vector to generate pHBT-35S::BAK1-FLAG, pHBT-35S::SERK4-FLAG, pHBT-35S::BIK1-HA, pHBT-35S::MIK2-HA, and pHBT-35S::MIK2-GFP constructs[24],[41],[62]. MIK2^ECD (residues 1–707) and BAK1^ECD (residues 1–220) were amplified by PCR from Col-0 cDNA and cloned into pFastBac-1 vector with a C-terminal 6× HIS tag[25],[62]. The fusion protein vectors carrying MIK2^ECD or BAK1^ECD were used for insect cell expression. To obtain the binary vector pCAMBIA1300-35S::RLK7, a 2907-bp RLK7 CDS was PCR-amplified from WT cDNA using gene-specific primers with KpnI and SalI at the 5′ and 3′ ends, respectively, followed by KpnI and SalI digestion and ligation into the pCAMBIA1300 vector. […]
Cold stratified seeds were surface-sterilized with 70% (v/v) ethanol for 5 min and were sown on ½MS plates with or without peptides at indicated concentrations. Ten-day-old seedlings grown on plates vertically in a growth chamber were photographed, and the root lengths of seedlings were measured using Image J (http://rsb.info.nih.gov/ij/).

[3] = system: Arabidopsis WT (Col-0) seedlings; type: in vivo, Arabidopsis thaliana
MIK2^ECD-BAK1^ECD = assay: Gel filtration of MIK2^ECD and BAK1^ECD; type: biochemical, Arabidopsis thaliana; conditions: 0.1 mg peptide, 10 mM Bis-Tris pH 6.0, 100 mM NaCl, on ice 1 h
Procedure: The ECD domains of MIK2 (MIK2^ECD) and BAK1 (BAK1^ECD) fused with a 6 × HIS tag at the C-terminus were expressed using the Bac-to-Bac baculovirus expression system (Invitrogen) in High Five cells at 22 °C[25]. One liter of cells (1.8 × 10^6 cells per mL cultured in the medium from Expression Systems) was infected with 20 mL baculovirus and the media were harvested after 48 h of infection. The secreted MIK2^ECD-6 × HIS and BAK1^ECD-6 × HIS proteins were purified using Ni-NTA (Novagen) and size-exclusion chromatography (Hiload 200, GE Healthcare) in buffer containing 10 mM Bis-Tris pH 6.0 and 100 mM NaCl.
The purified MIK2^ECD proteins (0.5 mg for each) and BAK1^ECD proteins (0.2 mg for each) were incubated together with SCOOP12 or SCOOP12^SS/AA (0.1 mg for each) in a buffer containing 10 mM Bis-Tris, pH 6.0, 100 mM NaCl on ice for 1 h. Then, each of the mixtures was separated by gel filtration (Hiload 200, GE Healthcare) with a flow rate of 0.8 mL/min and an injection volume of […] at 4 °C, and the peak fractions were separated on SDS-PAGE followed by Coomassie blue (CBB) staining.

MIK2^ECD [4] = target: T1, MIK2^ECD (Arabidopsis thaliana, UniProt Q8VZG8); assay: Surface plasmon resonance (SPR); type: binding; conditions: CM5 chip with immobilized MIK2^ECD
T1 construct: MIK2^ECD (residues 1–707) and BAK1^ECD (residues 1–220) were amplified by PCR from Col-0 cDNA; 6xHIS (C); made in house; host or cells: High Five insect cells (Bac-to-Bac baculovirus system)

MIK2^ECD [5] = target: T1, MIK2^ECD; assay: Isothermal titration calorimetry (ITC); type: binding; conditions: 25 °C, pH 7.0; 600 μM peptide into 30 μM MIK2^ECD
[6] = system: Arabidopsis WT seedling roots; assay: Microscopy of root browning and root meristems, WT; type: in vivo, Arabidopsis thaliana
[7] = system: WRKY30, WRKY33 and CYP81F2 expression, mik2 seedlings; assay: RT-qPCR of defense genes, mik2 mutants; type: in vivo, Arabidopsis thaliana
Arabidopsis WT seedlings = assay: ROS assay (luminol), WT seedlings; type: in vivo, Arabidopsis thaliana; conditions: WT seedlings
Procedure: ROS burst was determined by a luminol-based assay. […] Then, ddH2O was replaced by 200 µL of reaction solution containing 50 µM of luminol, and 10 µg/mL of horseradish peroxidase (Sigma-Aldrich) supplemented with or without 100 nM or 1 μM peptide. Luminescence was measured immediately after adding the solution with a luminometer (Glomax 20/20n, Promega) with a one-second interval for 15 min. The total values of ROS production were indicated as means of the relative light units (RLUs).

[8] = system: MPK3, MPK4 and MPK6 phosphorylation, bak1-4 and bak1-5/serk4 seedlings; assay: MAPK assay (α-pERK1/2 immunoblot), coreceptor mutants; type: in vivo, Arabidopsis thaliana
Procedure: (§1) Ten-day-old seedlings grown vertically on ½MS plates were transferred to ddH2O overnight for recovery. Then, ddH2O was replaced by 100 nM peptides for the indicated time.

[9] = system: MYB51 promoter, pMYB51::GUS seedling roots; assay: Histochemical GUS staining, pMYB51::GUS; type: in vivo, Arabidopsis thaliana; conditions: pMYB51::GUS seedlings, 1 µM, 3 h
Excerpt: Stained samples were fixed with a 3:1 ethanol:acetic acid solution overnight and cleared by lactic acid and photographed with the Olympus SZX10 stereoscopic microscope equipped with DP27 camera.

p35S::Aequorin seedlings = type: in vivo, Arabidopsis thaliana; conditions: Ca^2+ and ROS bursts, 100 nM
[10] = system: MPK3, MPK4 and MPK6 phosphorylation, WT seedlings; assay: MAPK assay (α-pERK1/2 immunoblot), WT; type: in vivo, Arabidopsis thaliana
Procedure: as §1

[11] = system: WRKY30, WRKY33 and CYP81F2 expression, WT seedlings; assay: RT-qPCR of defense genes, WT; type: in vivo, Arabidopsis thaliana
[12] = system: mik2-1 roots and leaf protoplasts; assay: TAMRA-SCOOP12 binding in vivo, mik2-1 (confocal); parameters: species or system Arabidopsis thaliana; conditions: mik2-1, 100 nM TAMRA-SCOOP12, 5 min
[13] = system: WT roots and leaf protoplasts; assay: TAMRA-SCOOP12 binding and competition in vivo, WT (confocal); parameters: species or system Arabidopsis thaliana; conditions: 100 nM TAMRA-SCOOP12, 5 min

T1 sequence (Q8VZG8 44-707): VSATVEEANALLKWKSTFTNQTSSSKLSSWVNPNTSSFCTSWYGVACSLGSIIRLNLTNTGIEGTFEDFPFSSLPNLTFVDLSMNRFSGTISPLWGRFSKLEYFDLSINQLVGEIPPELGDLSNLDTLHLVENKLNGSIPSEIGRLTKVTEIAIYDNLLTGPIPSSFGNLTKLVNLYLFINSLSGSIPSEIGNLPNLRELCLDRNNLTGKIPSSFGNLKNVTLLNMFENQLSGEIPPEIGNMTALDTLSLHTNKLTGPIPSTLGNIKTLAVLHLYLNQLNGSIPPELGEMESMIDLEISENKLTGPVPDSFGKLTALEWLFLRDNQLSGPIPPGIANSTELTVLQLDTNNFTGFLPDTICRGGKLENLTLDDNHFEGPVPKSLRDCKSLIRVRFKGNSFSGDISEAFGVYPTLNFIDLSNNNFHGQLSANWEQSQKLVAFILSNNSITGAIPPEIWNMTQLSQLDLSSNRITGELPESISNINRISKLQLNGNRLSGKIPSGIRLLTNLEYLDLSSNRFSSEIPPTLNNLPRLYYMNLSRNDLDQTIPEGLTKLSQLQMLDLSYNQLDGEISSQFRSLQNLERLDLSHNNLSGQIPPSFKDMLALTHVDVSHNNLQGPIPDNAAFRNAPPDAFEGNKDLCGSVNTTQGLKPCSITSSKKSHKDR

ATKVKAKQRGKEKVSSGRPGQHN [Pep1, plant endogenous peptide recognized by PEPR1/PEPR2]
response of mik2-1 to Pep1 ([1]; in vivo): responded to the Pep1 treatment similarly to WT plants
brown roots and darkened root-hypocotyl junctions [2]: brown roots, and darkened root-hypocotyl junctions
root growth retardation [2]: severe root growth retardation

MGSGASGPVRSAQASQAGGR [SCOOP12SS/AA, Alanine substitutions on two conserved serine residues in the SxS motif of SCOOP12]
root growth inhibition of SCOOP12^SS/AA ([3]; Supplementary Fig. 5d, e): abolished its activities to inhibit root growth through MIK2
MIK2^ECD-BAK1^ECD dimerization (MIK2^ECD-BAK1^ECD): unable to induce the dimerization between MIK2^ECD and BAK1^ECD
binding to MIK2^ECD, SPR (MIK2^ECD [4]): nearly no binding
binding to MIK2^ECD, ITC (MIK2^ECD [5]): No binding was detected

RPPTAPIYLPPSKSRKGKGP [SCOOP13, synthesized SCOOP peptide corresponding to the SxS motif]
root growth inhibition ([3]; in vivo): inhibited root growth to various degrees, with SCOOP10^B and 13 being the most active; also recorded: potent in inhibiting root growth
root browning ([6]; WT seedlings, prolonged treatment): led to brown roots
root meristem distortion ([6]; WT, 5-day-old seedlings, 1 µM, 48 h, PI staining): distorted root meristems
CYP81F2 expression (Fig. 3i) ([7]; mik2-1, repeat 1): 0.33
CYP81F2 expression (Fig. 3i) ([7]; mik2-1, repeat 2): 0.51
CYP81F2 expression (Fig. 3i) ([7]; mik2-1, repeat 3): 2.20
CYP81F2 expression (Fig. 3i) ([7]; mik2-1, repeat 4): 5.48
CYP81F2 expression (Fig. 3i) ([7]; mik2-2, repeat 1): 3.17
CYP81F2 expression (Fig. 3i) ([7]; mik2-2, repeat 2): 4.70
CYP81F2 expression (Fig. 3i) ([7]; mik2-2, repeat 3): 4.82
CYP81F2 expression (Fig. 3i) ([7]; mik2-2, repeat 4): 7.05
WRKY30, WRKY33 and CYP81F2 expression ([7]; mik2 mutants, 1 µM, 1 h, RT-qPCR): abolished in mik2 mutants
Root length (Fig. 3e) ([1]; mik2-1): 22.796 and 23.072 and 22.084 and 23.813 and 22.472 and 23.316 and 25.007 and 26.178 and 24.196 and 22.194
Root length (Fig. 3e) ([1]; mik2-2): 23.916 and 28.782 and 22.331 and 28.855 and 26.162 and 23.502 and 23.674 and 22.828 and 26.36 and 25.263 and 22.35
ROS production, total luminescence (Fig. 2h) (Arabidopsis WT seedlings; repeat 1): 1290342
ROS production, total luminescence (Fig. 2h) (Arabidopsis WT seedlings; repeat 2): 1525381
ROS production, total luminescence (Fig. 2h) (Arabidopsis WT seedlings; repeat 3): 622461
MAPK activation in bak1-4 ([8]; bak1-4): reduced in bak1-4
MAPK activation in bak1-5/serk4 ([8]; bak1-5/serk4): substantially blocked in bak1-5/serk4
MYB51 promoter activity in roots [9]: induced the promoter activities of MYB51
ROS production, SCOOP13 and 14 relative to other SCOOPs, and Ca^2+ bursts (p35S::Aequorin seedlings): relatively weak activities for Ca^2+ and ROS bursts
MAPK activation in shoots and roots ([10]; Supplementary Fig. 3i): triggered the MAPK activation in both shoots and roots
WRKY30, WRKY33 and CYP81F2 expression ([11]; 1 µM, 1 h, RT-qPCR): upregulation
CYP81F2 expression (Fig. 3i) ([11]; repeat 1): 41.34
CYP81F2 expression (Fig. 3i) ([11]; repeat 2): 47.71
CYP81F2 expression (Fig. 3i) ([11]; repeat 3): 93.81
CYP81F2 expression (Fig. 3i) ([11]; repeat 4): 121.82

TAMRA-MGSGASGPVRSSQSSQAGGR [TAMRA-SCOOP12, red fluorescent tetramethylrhodamine (TAMRA)-labeled SCOOP12 peptides at its N-terminus]
bioactivity of labelled peptide: root growth inhibition vs SCOOP12 ([3]; Supplementary Fig. 5a, b, MIK2-dependent): slightly lesser extent than SCOOP12
MAPK activation by labelled peptide vs SCOOP12 ([10]; Supplementary Fig. 5c, MIK2-dependent): slightly lesser extent than SCOOP12
red fluorescent labelling of root tips and leaf protoplasts [12]: not in mik2-1
red fluorescent labelling of root tips and leaf protoplasts [13]: Red fluorescent signals were detected
